Assay results reported in patent publication US12540131B2 (Merck Sharp & Dohme LLC, priority 2019, dated 2026).

Target: GST tagged truncated human mutant G2019S LRRK2 (Homo sapiens (Human), UniProt Q5S007, G2019S)
Experiment: LRRK2 Km ATP LanthaScreen Assay
Format: biochemical
Conditions: G2019S LRRK2, 134 μM ATP (Km ATP), mean values
How it was run: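 Enzyme (GST-tagged, truncated) was preincubated with compound for 15 min at RT in 50 mM Tris pH 8.5, 10 mM MgCl2, 0.01% Brij-35, 1 mM EGTA, 2 mM DTT and 0.05 mM orthovanadate. Fluorescein-LRRKtide and 134 μM ATP (Km) were then added for 90 min. EDTA and Tb-anti-pERM antibody stopped the reaction; the TR-FRET 520/495 ratio gave 4-parameter IC50s, reported as mean pIC50.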

GST tagged truncated human mutant G2019S LRRK2, sequence (Q5S007 970-2527 G2019S): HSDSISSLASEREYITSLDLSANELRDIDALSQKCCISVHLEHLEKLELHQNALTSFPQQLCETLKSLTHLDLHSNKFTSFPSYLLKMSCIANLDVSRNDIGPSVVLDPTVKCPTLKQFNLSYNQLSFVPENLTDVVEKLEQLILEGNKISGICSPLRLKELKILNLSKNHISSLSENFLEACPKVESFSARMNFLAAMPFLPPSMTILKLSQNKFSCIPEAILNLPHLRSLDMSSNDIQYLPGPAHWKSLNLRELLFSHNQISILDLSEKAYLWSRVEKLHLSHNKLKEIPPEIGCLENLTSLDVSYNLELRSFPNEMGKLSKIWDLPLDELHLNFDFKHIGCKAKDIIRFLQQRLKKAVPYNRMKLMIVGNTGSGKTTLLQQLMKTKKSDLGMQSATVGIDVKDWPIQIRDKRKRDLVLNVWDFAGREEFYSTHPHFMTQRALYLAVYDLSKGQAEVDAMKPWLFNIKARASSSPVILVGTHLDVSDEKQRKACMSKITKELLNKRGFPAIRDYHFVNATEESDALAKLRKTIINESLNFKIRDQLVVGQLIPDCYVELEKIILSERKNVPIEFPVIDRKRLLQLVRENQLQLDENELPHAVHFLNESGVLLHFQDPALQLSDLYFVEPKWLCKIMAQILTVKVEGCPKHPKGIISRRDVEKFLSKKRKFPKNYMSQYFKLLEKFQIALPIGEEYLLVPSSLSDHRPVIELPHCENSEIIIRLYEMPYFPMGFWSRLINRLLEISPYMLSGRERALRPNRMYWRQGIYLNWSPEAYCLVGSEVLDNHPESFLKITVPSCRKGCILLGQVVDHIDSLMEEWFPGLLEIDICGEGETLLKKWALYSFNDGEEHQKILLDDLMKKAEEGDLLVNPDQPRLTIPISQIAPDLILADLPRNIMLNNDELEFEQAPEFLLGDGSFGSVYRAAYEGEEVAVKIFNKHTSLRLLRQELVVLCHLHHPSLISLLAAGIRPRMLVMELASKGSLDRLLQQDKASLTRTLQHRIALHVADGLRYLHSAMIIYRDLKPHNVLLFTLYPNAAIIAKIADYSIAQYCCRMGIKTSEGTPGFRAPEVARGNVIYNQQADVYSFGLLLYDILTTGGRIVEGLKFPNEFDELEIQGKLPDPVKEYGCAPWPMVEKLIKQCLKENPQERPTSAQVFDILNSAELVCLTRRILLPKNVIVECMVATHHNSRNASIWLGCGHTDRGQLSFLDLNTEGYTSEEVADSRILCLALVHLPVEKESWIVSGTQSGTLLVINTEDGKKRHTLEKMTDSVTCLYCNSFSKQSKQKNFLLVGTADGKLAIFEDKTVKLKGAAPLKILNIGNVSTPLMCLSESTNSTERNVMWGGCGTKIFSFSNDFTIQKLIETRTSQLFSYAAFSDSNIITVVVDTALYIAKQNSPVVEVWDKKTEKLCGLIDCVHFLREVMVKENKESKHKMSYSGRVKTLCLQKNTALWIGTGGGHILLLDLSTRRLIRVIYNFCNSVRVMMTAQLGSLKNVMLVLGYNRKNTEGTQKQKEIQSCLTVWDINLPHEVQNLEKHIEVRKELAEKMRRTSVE

Cc1cc2cnc(Nc3cnn(C4CC4(F)F)c3Cl)nc2cc1[C@H]1CCN(C2COC[C@@H]2O)C[C@@H]1F (single isomer, unassigned) [Ex-4.139, (R)(3S,4S)(3S,4S) or (R)(3S,4S)(3R,4R) or (R)(3R,4R)(3S,4S) or (R)(3R,4R)(3R,4R) or (S)(3S,4S)(3S,4S) or (S)(3S,4S)(3R,4R) or (S)(3R,4R)(3S,4S) or (S)(3R,4R)(3R,4R) 4-[4-(2-{[5-chloro-1-(2,2-difluorocyclopropyl)-1H-pyrazol-4-yl]amino}-6-methylquinazolin-7-yl)-3-fluoropiperidin-1-yl]oxolan-3-ol]
LRRK2 pIC50: >9.20

Cc1cc2cnc(Nc3cnn(C4CC4(F)F)c3Cl)nc2cc1[C@H]1CCN(C2COC[C@H]2O)C[C@@H]1F (single isomer, unassigned) [Ex-4.140, (R)(3S,4S)(3S,4S) or (R)(3S,4S)(3R,4R) or (R)(3R,4R)(3S,4S) or (R)(3R,4R)(3R,4R) or (S)(3S,4S)(3S,4S) or (S)(3S,4S)(3R,4R) or (S)(3R,4R)(3S,4S) or (S)(3R,4R)(3R,4R) 4-[4-(2-{[5-chloro-1-(2,2-difluorocyclopropyl)-1H-pyrazol-4-yl]amino}-6-methylquinazolin-7-yl)-3-fluoropiperidin-1-yl]oxolan-3-ol]
LRRK2 pIC50: 9.19

Cc1cc2cnc(Nc3cnn(C4CC4(F)F)c3C)nc2cc1C1CCN([C@H]2COC[C@H]2O)CC1 (single isomer, unassigned) [Ex-4.141, (R)(3S,4S) or (S)(3S,4S) or (R)(3R,4R) or (S)(3R,4R) 4-[4-(2-{[1-(2,2-difluorocyclopropyl)-5-methyl-1H-pyrazol-4-yl]amino}-6-methylquinazolin-7-yl)piperidin-1-yl]oxolan-3-ol]
LRRK2 pIC50: >9.20

Cc1cc2cnc(Nc3cnn(C4CC4(F)F)c3C)nc2cc1C1CCN([C@@H]2COC[C@@H]2O)CC1 (single isomer, unassigned) [Ex-4.142, (R)(3S,4S) or (S)(3S,4S) or (R)(3R,4R) or (S)(3R,4R) 4-[4-(2-{[1-(2,2-difluorocyclopropyl)-5-methyl-1H-pyrazol-4-yl]amino}-6-methylquinazolin-7-yl)piperidin-1-yl]oxolan-3-ol]
LRRK2 pIC50: 8.94

Cc1cc2cnc(Nc3cnn(C4CC4(F)F)c3C)nc2cc1[C@@H]1CCN([C@H]2COC[C@H]2O)C[C@H]1F (single isomer, unassigned) [Ex-4.143, (R)(3S,4S)(3S,4S) or (R)(3S,4S)(3R,4R) or (R)(3R,4R)(3S,4S) or (R)(3R,4R)(3R,4R) or (S)(3S,4S)(3S,4S) or (S)(3S,4S)(3R,4R) or (S)(3R,4R)(3S,4S) or (S)(3R,4R)(3R,4R) 4-[4-(2-{[1-(2,2-difluorocyclopropyl)-5-methyl-1H-pyrazol-4-yl]amino}-6-methylquinazolin-7-yl)-3-fluoropiperidin-1-yl]oxolan-3-ol]
LRRK2 pIC50: >9.20

Cc1cc2cnc(Nc3cnn(C4CC4(F)F)c3C)nc2cc1[C@@H]1CCN([C@@H]2COC[C@@H]2O)C[C@H]1F (single isomer, unassigned) [Ex-4.144, (R)(3S,4S)(3S,4S) or (R)(3S,4S)(3R,4R) or (R)(3R,4R)(3S,4S) or (R)(3R,4R)(3R,4R) or (S)(3S,4S)(3S,4S) or (S)(3S,4S)(3R,4R) or (S)(3R,4R)(3S,4S) or (S)(3R,4R)(3R,4R) 4-[4-(2-{[1-(2,2-difluorocyclopropyl)-5-methyl-1H-pyrazol-4-yl]amino}-6-methylquinazolin-7-yl)-3-fluoropiperidin-1-yl]oxolan-3-ol]
LRRK2 pIC50: 8.68

Cc1cc2cnc(Nc3cnn(C4CC4(F)F)c3Cl)nc2cc1[C@@H]1CCN([C@H]2COC[C@H]2O)C[C@H]1F (single isomer, unassigned) [Ex-4.145, (R)(3S,4S)(3S,4S) or (R)(3S,4S)(3R,4R) or (R)(3R,4R)(3S,4S) or (R)(3R,4R)(3R,4R) or (S)(3S,4S)(3S,4S) or (S)(3S,4S)(3R,4R) or (S)(3R,4R)(3S,4S) or (S)(3R,4R)(3R,4R) 4-[4-(2-{[5-chloro-1-(2,2-difluorocyclopropyl)-1H-pyrazol-4-yl]amino}-6-methylquinazolin-7-yl)-3-fluoropiperidin-1-yl]oxolan-3-ol]
LRRK2 pIC50: >9.20

Cc1cc2cnc(Nc3cnn(C4CC4(F)F)c3C)nc2cc1[C@@H]1CCN([C@@H]2COC[C@@H]2O)C[C@H]1F (single isomer, unassigned) [Ex-4.146, (R)(3S,4S)(3S,4S) or (R)(3S,4S)(3R,4R) or (R)(3R,4R)(3S,4S) or (R)(3R,4R)(3R,4R) or (S)(3S,4S)(3S,4S) or (S)(3S,4S)(3R,4R) or (S)(3R,4R)(3S,4S) or (S)(3R,4R)(3R,4R) 4-[4-(2-{[1-(2,2-difluorocyclopropyl)-5-methyl-1H-pyrazol-4-yl]amino}-6-methylquinazolin-7-yl)-3-fluoropiperidin-1-yl]oxolan-3-ol]
LRRK2 pIC50: >9.20

Cc1cc2cnc(Nc3cnn(C4CC4(F)F)c3Cl)nc2cc1[C@@H]1CCN([C@@]2(C)COC[C@H]2O)C[C@H]1F (single isomer, unassigned) [Ex-4.147, (R)(3S,4S)(3S,4S) or (R)(3S,4S)(3R,4R) or (R)(3R,4R)(3S,4S) or (R)(3R,4R)(3R,4R) or (S)(3S,4S)(3S,4S) or (S)(3S,4S)(3R,4R) or (S)(3R,4R)(3S,4S) or (S)(3R,4R)(3R,4R) 4-[4-(2-{[5-chloro-1-(2,2-difluorocyclopropyl)-1H-pyrazol-4-yl]amino}-6-methylquinazolin-7-yl)-3-fluoropiperidin-1-yl]-4-methyloxolan-3-ol]
LRRK2 pIC50: >9.20

Cc1cc2cnc(Nc3cnn(C4CC4)c3Cl)nc2cc1[C@@H]1CCN([C@@]2(C)COC[C@H]2O)C[C@H]1F (single isomer, unassigned) [Ex-4.148, (3S,4S)(3S,4S) or (3S,4S)(3R,4R) or (3R,4R)(3S,4S) or (3R,4R)(3R,4R) 4-(4-{2-[(5-chloro-1-cyclopropyl-1H-pyrazol-4-yl)amino]-6-methylquinazolin-7-yl}-3-fluoropiperidin-1-yl)-4-methyloxolan-3-ol]
LRRK2 pIC50: >9.20

Cc1cc2cnc(Nc3cnn(C4CC4)c3Cl)nc2cc1[C@@H]1CCN([C@]2(C)COC[C@@H]2O)C[C@H]1F (single isomer, unassigned) [Ex-4.149, (3S,4S)(3S,4S) or (3S,4S)(3R,4R) or (3R,4R)(3S,4S) or (3R,4R)(3R,4R) 4-(4-{2-[(5-chloro-1-cyclopropyl-1H-pyrazol-4-yl)amino]-6-methylquinazolin-7-yl}-3-fluoropiperidin-1-yl)-4-methyloxolan-3-ol]
LRRK2 pIC50: >9.20

Cc1cc2cnc(Nc3cnn(C4CC4)c3Cl)nc2cc1[C@@H]1CCN([C@@H]2COC[C@@H]2O)C[C@H]1F (single isomer, unassigned) [Ex-4.150, (3S,4S)(3S,4S) or (3S,4S)(3R,4R) or (3R,4R)(3S,4S) or (3R,4R)(3R,4R) 4-(4-{2-[(5-chloro-1-cyclopropyl-1H-pyrazol-4-yl)amino]-6-methylquinazolin-7-yl}-3-fluoropiperidin-1-yl)oxolan-3-ol]
LRRK2 pIC50: >9.20

O[C@H]1COC[C@H]1N1CCC(c2cc3nc(Nc4cnn(C56CC(C5)C6)c4)ncc3cc2Cl)CC1 (single isomer, unassigned) [Ex-4.151, (3S,4S) or (3R,4R) 4-[4-(2-{[1-(bicyclo[1.1.1]pentan-1-yl)-1H-pyrazol-4-yl]amino}-6-chloroquinazolin-7-yl)piperidin-1-yl]oxolan-3-ol]
LRRK2 pIC50: 8.98
